# According to patent publication US11974993B2, “Solution formulations of CX-011” (City of Hope, priority 2021, dated 2024):
# “Also recorded” adds a separate entry of the source.
# How the values were obtained:
# pSTAT3 and MYC = details: disclosed in U.S. Patent Publication No. 2020/0377494A1; cited from earlier work
# [1] = test system: aggrecan and collagen neoepitopes; details: disclosed in U.S. Patent Publication No. 2020/0377494A1; cited from earlier work
# [2] = Properties of the CX-011 solution in Kolliphor HS 15: pH, 0.22 um filtration with UV absorbance at 323 nm, storage stability by appearance and HPLC; type: physicochemical
# Procedure: Preparation of 30% (w/v) Kolliphor HS 15 in aqueous solution. Solid Kolliphor HS 15 was immersed in a water bath at 37° C. until melted. A 30% (w/v) solution was prepared by vortex mixing Kolliphor HS 15 with an appropriate amount of distilled water. The mixture was filtered through a 0.22 um PES filter (Corning).
# (§1) 15 mg CX-011 was added to a 50 mL tube. A volume of 5-10 mL 30% kolliphor HS was added. […] Distilled water or other physiology buffer, for example, PBS or saline was added to the above completely dissolved solution to final volume 100 mL with gently stirring. The solution can be filtered through 0.22 um filter. The appearance and pH value was noted. The solution was clear with pH value 5-5.5 for water and saline solution and is 7.2 for PBS solution. […] The final Kolliphor HS concentration in solution is about 1.5%-3%.
# [3] = Dissolution of solid CX-011 in solvents and excipient solutions, determined by visual inspection; type: physicochemical
# Procedure: Confirmation of dissolution can be confirmed by visual inspection, either by the naked eye or by microscope, to detect the presence of undissolved particles. Spectroscopic methods can also be used, such as light scattering detection or absorbance spectroscopy. Apparatuses for such spectroscopic detection are well-known in the art.
# Solid CX-011 (5 mg) was mixed in a solution of 20%-40% 2-Hydroxypropyl)-β-cyclodextrin (Accelachem) in water (10 mL) and the mixture sonicated for 30 minutes. Dissolution determined by visual inspection. Not soluble.
# Solid CX-011 (5 mg) was mixed in a solution of 20%-40% 2-Hydroxypropyl)-β-cyclodextrin (Accelachem) in water (10 mL) and 50 μL 1N HCl and the mixture sonicated for 30 minutes. Dissolution determined by visual inspection. Not soluble.
# Solid CX-011 (4 mg) was mixed in a solution of 3N HCl aqueous (2 mL) and the mixture sonicated for 30 minutes. Dissolution determined by visual inspection. Not soluble.
# Solid CX-011 (2.6 mg) was mixed in a solution of ˜4N HCl in methanol (200 uL) and the mixture sonicated for 30 minutes. Dissolution determined by visual inspection. Not soluble.
# Solvent was evaporated. The remaining residue was washed with ether twice, then dried. The dried residue was mixed with water (10 mL) and the mixture sonicated for 30 minutes. Dissolution determined by visual inspection. Not soluble.
# Solid CX-011 (1 mg) was mixed in a solution of 10% polyvinylpyrrolidone K-30 (10 mL) and the mixture sonicated for 30 minutes. Dissolution determined by visual inspection. Not soluble.
# Solid CX-011 (1.5 mg) was mixed in ethanol (0.5 mL) and the mixture sonicated for 30 minutes. Dissolution determined by visual inspection. Not soluble.
# Solid CX-011 (3 mg) was mixed in propylene glycol (0.5 mL) (Spectrum) and the mixture sonicated for 30 minutes. Dissolution determined by visual inspection. Not soluble.
# Water (0.5 mL) was added.
# Solid CX-011 (2.8 mg) was added to PEG400 (0.5 mL) (Spectrum) and mixed on a vortexer until dissolved. Water (0.5 mL) was added.
# Solid CX-011 (3.0 mg) was mixed in 30% Kolliphor® HS 15 (5 mL) (Sigma) and the mixture sonicated for 30 minutes. Dissolution determined by visual inspection.
# Solid CX-011 (15 mg) was mixed in polysorbate 80 (1 mL) and the mixture sonicated for 30 minutes. The solution was clear.
# as §1
compound,measurement,setting,value
Cc1ccc(-c2csc(NC(=O)c3ccccn3)n2)cc1 [CX-011],Levels of pSTAT3 and MYC,pSTAT3 and MYC,did not increase
same,Generation of aggrecan and collagen neoepitopes,[1],almost completely blocked
same,Difference of the concentration of CX-011 before or after filtration,"[2]; Example 14: 0.22 um filter, UV absorbance at 323 nm",no significant difference
same,pH value of the solution,[2]; Example 14: PBS solution,7.2
same,pH value of the solution,[2]; Example 14: water and saline solution,5-5.5
same,Appearance of the solution on storage,"[2]; Example 14 solution, after 1 week at room temperature",remained clear
same,Stability of the compound by HPLC analysis,"[2]; Example 14 solution, under preparation and storage",stable
same,Dissolution by visual inspection,"[3]; Example 1: 5 mg in 10 mL 20%-40% 2-hydroxypropyl-β-cyclodextrin in water, sonicated 30 minutes",Not soluble
same,Dissolution by visual inspection,"[3]; Example 2: 5 mg in 10 mL 20%-40% 2-hydroxypropyl-β-cyclodextrin in water plus 50 μL 1N HCl, sonicated 30 minutes",Not soluble
same,Dissolution by visual inspection,"[3]; Example 3: 4 mg in 2 mL 3N HCl aqueous, sonicated 30 minutes",Not soluble
same,Dissolution by visual inspection,"[3]; Example 4: 2.6 mg in 200 uL ~4N HCl in methanol, sonicated 30 minutes",Not soluble
same,Dissolution by visual inspection,"[3]; Example 5: 6 mg treated with 1 eq MeSO3H in CH2Cl2, evaporated, dried residue in 10 mL water, sonicated 30 minutes",Not soluble
same,Dissolution by visual inspection,"[3]; Example 6: 1 mg in 10 mL 10% polyvinylpyrrolidone K-30, sonicated 30 minutes",Not soluble
same,Dissolution by visual inspection,"[3]; Example 7: 1.5 mg in 0.5 mL ethanol, sonicated 30 minutes",Not soluble
same,Dissolution by visual inspection,"[3]; Example 8: 3 mg in 0.5 mL propylene glycol, sonicated 30 minutes",Not soluble
same,Appearance after addition of water,"[3]; Example 9: 4 mg in 0.5 mL DMA, then 0.5 mL water added",Precipitation was observed
same,Dissolution by visual inspection,"[3]; Example 9: 4 mg in 0.5 mL DMA, vortexed",clear solution
same,Appearance after addition of water,"[3]; Example 10: 2.8 mg in 0.5 mL PEG400, then 0.5 mL water added",Precipitation was observed
same,Dissolution by visual inspection,"[3]; Example 10: 2.8 mg in 0.5 mL PEG400, vortexed",dissolved
same,Dissolution by visual inspection,"[3]; Example 11: 3.0 mg in 5 mL 30% Kolliphor HS 15, sonicated 30 minutes",Dissolved—clear solution
same,Dissolution by visual inspection,"[3]; Example 12: 15 mg in 1 mL polysorbate 80, sonicated 30 minutes",clear
same,Appearance after addition of water,"[3]; Example 12: 15 mg in 1 mL polysorbate 80, then 10 mL water added",precipitate was observed
same,Appearance of the diluted solution,"[3]; Example 14: 15 mg diluted to 100 mL with water, PBS or saline, final Kolliphor HS about 1.5%-3%",clear
same,Dissolution by visual inspection,"[3]; Example 14: 15 mg in 5-10 mL 30% Kolliphor HS, sonicated 2 hours",clear solution
same,Solubility in aqueous solution,"[3]; aqueous solution, general statement",poorly soluble; also recorded: poor solubility
